Measured values as given in PubChem BioAssay AID1259407 (Chemical Carcinogenesis Research Information System (CCRIS), 2018).
Active and inactive are the calls of the source. How the calls were made is not given here.

Test system: CCRIS mutagenicity, Ames/micronucleus/aberration tests
Assay: CCRIS mutagenicity studies
[1] = Test System: AMES SALMONELLA TYPHIMURIUM, Strain/Indicator: TA100, Metabolic Activation: NONE, Method: PREINCUBATION
[2] = Test System: AMES SALMONELLA TYPHIMURIUM, Strain/Indicator: TA1535, Metabolic Activation: NONE, Method: PREINCUBATION
[3] = Test System: AMES SALMONELLA TYPHIMURIUM, Strain/Indicator: TA1537, Metabolic Activation: NONE, Method: PREINCUBATION
[4] = Test System: AMES SALMONELLA TYPHIMURIUM, Strain/Indicator: TA98, Metabolic Activation: NONE, Method: STANDARD PLATE
[5] = Test System: AMES SALMONELLA TYPHIMURIUM, Strain/Indicator: TA100, Metabolic Activation: NONE, Method: STANDARD PLATE

SMILES: O=C(O)C(=O)O
- mutagenic call (Test System: AMES SALMONELLA TYPHIMURIUM, Strain/Indicator: TA97, Metabolic Activation: NONE, Method: PREINCUBATION): inactive; negative
- mutagenic call (Test System: AMES SALMONELLA TYPHIMURIUM, Strain/Indicator: TA97, Metabolic Activation: RAT, LIVER, S-9, PHENOBARBITAL AND 5,6-BENZOFLAVONE, Method: PREINCUBATION): inactive; negative
- mutagenic call (Test System: AMES SALMONELLA TYPHIMURIUM, Strain/Indicator: TA97, Metabolic Activation: S-9, Method: PREINCUBATION): inactive; negative
- mutagenic call (Test System: AMES SALMONELLA TYPHIMURIUM, Strain/Indicator: TA98, Metabolic Activation: NONE, Method: PREINCUBATION): inactive; negative
- mutagenic call (Test System: AMES SALMONELLA TYPHIMURIUM, Strain/Indicator: TA98, Metabolic Activation: RAT, LIVER, S-9, PHENOBARBITAL AND 5,6-BENZOFLAVONE, Method: PREINCUBATION): inactive; negative
- mutagenic call (Test System: AMES SALMONELLA TYPHIMURIUM, Strain/Indicator: TA98, Metabolic Activation: RAT, LIVER, S-9, SODIUM PHENOBARBITAL AND 5,6-BENZOFLAVONE, Method: PREINCUBATION): inactive; negative
- mutagenic call [1]: inactive; negative
- mutagenic call (Test System: AMES SALMONELLA TYPHIMURIUM, Strain/Indicator: TA100, Metabolic Activation: NONE, Method: PREINCUBATION (11 HR GROWTH PERIOD FOR BACTERIA)): active; positive
- mutagenic call (Test System: AMES SALMONELLA TYPHIMURIUM, Strain/Indicator: TA100, Metabolic Activation: RAT, LIVER, S-9, PCB, Method: PREINCUBATION (11 HR GROWTH PERIOD FOR BACTERIA)): inactive; negative
- mutagenic call (Test System: AMES SALMONELLA TYPHIMURIUM, Strain/Indicator: TA100, Metabolic Activation: RAT, LIVER, S-9, PHENOBARBITAL AND 5,6-BENZOFLAVONE, Method: PREINCUBATION): inactive; negative
- mutagenic call (Test System: AMES SALMONELLA TYPHIMURIUM, Strain/Indicator: TA100, Metabolic Activation: RAT, LIVER, S-9, SODIUM PHENOBARBITAL AND 5,6-BENZOFLAVONE, Method: PREINCUBATION): inactive; negative
- mutagenic call (Test System: AMES SALMONELLA TYPHIMURIUM, Strain/Indicator: TA102, Metabolic Activation: NONE, Method: PREINCUBATION (5, 7 OR 11 HR GROWTH PERIOD FOR BACTERIA)): active; positive
- mutagenic call (Test System: AMES SALMONELLA TYPHIMURIUM, Strain/Indicator: TA102, Metabolic Activation: RAT, LIVER, S-9, PCB, Method: PREINCUBATION (5 OR 7 HR GROWTH PERIOD FOR BACTERIA)): inactive; negative
- mutagenic call (Test System: AMES SALMONELLA TYPHIMURIUM, Strain/Indicator: TA102, Metabolic Activation: RAT, LIVER, S-9, PHENOBARBITAL AND 5,6-BENZOFLAVONE, Method: PREINCUBATION): inactive; negative
- mutagenic call (Test System: AMES SALMONELLA TYPHIMURIUM, Strain/Indicator: TA102, Metabolic Activation: RAT, LIVER, S-9, SODIUM PHENOBARBITAL AND 5,6-BENZOFLAVONE, Method: PREINCUBATION): inactive; negative
- mutagenic call (Test System: AMES SALMONELLA TYPHIMURIUM, Strain/Indicator: TA102, Metabolic Activation: S-9, Method: PREINCUBATION): inactive; negative
- mutagenic call (Test System: AMES SALMONELLA TYPHIMURIUM, Strain/Indicator: TA104, Metabolic Activation: NONE, Method: PREINCUBATION): inactive; negative
- mutagenic call (Test System: AMES SALMONELLA TYPHIMURIUM, Strain/Indicator: TA104, Metabolic Activation: RAT, LIVER, S-9, PHENOBARBITAL AND 5,6-BENZOFLAVONE, Method: PREINCUBATION): inactive; negative
- mutagenic call (Test System: AMES SALMONELLA TYPHIMURIUM, Strain/Indicator: TA104, Metabolic Activation: RAT, LIVER, S-9, SODIUM PHENOBARBITAL AND 5,6-BENZOFLAVONE, Method: PREINCUBATION): inactive; negative
- mutagenic call [2]: inactive; negative
- mutagenic call (Test System: AMES SALMONELLA TYPHIMURIUM, Strain/Indicator: TA1535, Metabolic Activation: RAT, LIVER, S-9, SODIUM PHENOBARBITAL AND 5,6-BENZOFLAVONE, Method: PREINCUBATION): inactive; negative
- mutagenic call [3]: inactive; negative
- mutagenic call (Test System: AMES SALMONELLA TYPHIMURIUM, Strain/Indicator: TA1537, Metabolic Activation: RAT, LIVER, S-9, SODIUM PHENOBARBITAL AND 5,6-BENZOFLAVONE, Method: PREINCUBATION): inactive; negative
- mutagenic call (Test System: E. COLI, Strain/Indicator: WP2UVRA/PKM101, Metabolic Activation: NONE, Method: PREINCUBATION): inactive; negative
- mutagenic call (Test System: E. COLI, Strain/Indicator: WP2UVRA/PKM101, Metabolic Activation: RAT, LIVER, S-9, SODIUM PHENOBARBITAL AND 5,6-BENZOFLAVONE, Method: PREINCUBATION): inactive; negative
- mutagenic call (Test System: E. COLI, Strain/Indicator: WP2UVRA, Metabolic Activation: NONE, Method: PREINCUBATION): inactive; negative
- mutagenic call (Test System: E. COLI, Strain/Indicator: WP2UVRA, Metabolic Activation: RAT, LIVER, S-9, SODIUM PHENOBARBITAL AND 5,6-BENZOFLAVONE, Method: PREINCUBATION): inactive; negative

SMILES: O=[N+]([O-])c1cc2[nH]c3ccc4ccccc4c3c2c2cccc(O)c12
- mutagenic call [4]: active; positive
- mutagenic call (Test System: AMES SALMONELLA TYPHIMURIUM, Strain/Indicator: TA98, Metabolic Activation: RAT, LIVER, S-9, 3-METHYLCHOLANTHRENE, Method: STANDARD PLATE): active; positive
- mutagenic call [5]: active; positive
- mutagenic call (Test System: AMES SALMONELLA TYPHIMURIUM, Strain/Indicator: TA100, Metabolic Activation: RAT, LIVER, S-9, 3-METHYLCHOLANTHRENE, Method: STANDARD PLATE): active; positive

SMILES: O=[N+]([O-])c1cccc(CO/N=C/c2nc3cc([N+](=O)[O-])ccc3n2Cc2ccc(F)cc2)c1
- mutagenic call [4]: inactive; negative
- mutagenic call (Test System: AMES SALMONELLA TYPHIMURIUM, Strain/Indicator: TA98, Metabolic Activation: RAT, LIVER, S-9, PHENOBARBITAL AND BETA-NAPHTHOFLAVONE, Method: STANDARD PLATE): inactive; negative
- mutagenic call [5]: inactive; negative
- mutagenic call (Test System: AMES SALMONELLA TYPHIMURIUM, Strain/Indicator: TA100, Metabolic Activation: RAT, LIVER, S-9, PHENOBARBITAL AND BETA-NAPHTHOFLAVONE, Method: STANDARD PLATE): inactive; negative

SMILES: Clc1ccc(CC2CO2)cc1 (configuration not stated)
- mutagenic call [1]: active; positive
- mutagenic call [5]: active; positive
- mutagenic call [2]: active; positive
- mutagenic call (Test System: AMES SALMONELLA TYPHIMURIUM, Strain/Indicator: TA1535, Metabolic Activation: NONE, Method: STANDARD PLATE): active; positive

SMILES: Nc1c2ccccc2nc2ccc([N+](=O)[O-])cc12
- mutagenic call (Test System: AMES SALMONELLA TYPHIMURIUM, Strain/Indicator: TA1537, Metabolic Activation: NONE): active; positive
- mutagenic call [3]: active; positive

SMILES: C[C@]12CC[C@@H]3c4cc(O)c(O)cc4CC[C@H]3[C@@H]1CCC2=O
- mutagenic call (Test System: Ames Salmonella typhimurium, Strain/Indicator: TA98, Metabolic Activation: None, Method: Standard plate): inactive; negative
- mutagenic call (Test System: Ames Salmonella typhimurium, Strain/Indicator: TA98, Metabolic Activation: Rat, liver, S-9, Method: Standard plate): inactive; negative
- mutagenic call (Test System: Ames Salmonella typhimurium, Strain/Indicator: TA100, Metabolic Activation: None, Method: Standard plate): inactive; negative
- mutagenic call (Test System: Ames Salmonella typhimurium, Strain/Indicator: TA100, Metabolic Activation: Rat, liver, S-9, Method: Standard plate): inactive; negative

SMILES: Cc1ccc2cc3c(ccc4ccccc43)c3c2c1CC3=O
- mutagenic call (Test System: CHINESE HAMSTER V-79, Strain/Indicator: V-79/8-AZAGUANINE, Metabolic Activation: RAT, LIVER, S-9, AROCLOR 1254, Method: STANDARD PLATE): active; positive

SMILES: O=C1C=CC(=C(Cl)Cl)O1
- mutagenic call [5]: active; positive
